Legend:
[1] = Check of crystalline state and measurement of degree of crystallinity by powder X-ray diffraction; format: physicochemical; conditions: powder X-ray diffraction, Xc=(Sc/(Sc+Sa))×100
Method: The degree of crystallinity of the crystalline finely-ground particles according to the present invention is calculated from the integrated intensity ratio of crystalline peaks and amorphous halo which are extracted from an X-ray diffraction pattern obtained by powder X-ray diffraction measurement.
The powder X-ray diffraction measurement may be carried out by using, for example, a powder X-ray diffractometer (2200/RINT Ultima+PC) manufactured by Rigaku as described in Evaluation 2 of the present invention. In preparation of a measurement sample, 100 mg of a sample material is filled in a glass sample plate (0.2 mm depth) in non-destructive condition, and the surface of the sample material is leveled out using a glass plate to obtain a measurement sample. An example of the measurement condition is as follows, which was used in the present invention.
The degree of crystallinity may be calculated by a known analysis method using diffraction patterns of a sample material and sample plate alone (without a sample material) and a difference pattern thereof. For example, using a powder X-ray diffraction pattern analysis software JADE5.0 produced by MDI, which is a commercially available analysis software, a degree of crystallinity may be calculated as follows.
• (1) A difference pattern of the diffraction patterns of a sample material and sample plate alone is smoothed (Savitzky-Goray filter: 19 points). • (2) For a display area of the difference pattern, the x-axis: diffraction angle (2θ) is set between 2 deg and 90 deg, and the y-axis: diffraction intensity (Counts) is set between 0 and 500. • (3) Points are set at diffraction angles of […], 65 and 90 deg, respectively, and a straight line parallel to the x-axis is drawn such that the line is contact with the difference diffraction pattern at a range of 65 deg to 90 deg. The area below the line is determined as a background. • (4) The background is subtracted. • (5) An integrated intensity at a range of 4 deg to 60 deg is calculated (which corresponds to a sum of the integrated intensity of crystalline peaks and an amorphous halo: Sc+Sa) • (6) Points are set at diffraction angles of 2, 7, 18, 26, 30, 35, 59, 65 and 90 deg, respectively. At 2, 65 and 90 deg, the diffraction intensity is set as 0, and at 7, 18, 26, 30, 35 and 59 deg, an approximation by a cubic spline is made such that the approximation formula is in contact with the difference pattern obtained after the subtraction of the background, thereby estimating an amorphous halo. • (7) The amorphous halo is subtracted. • (8) The integrated intensity at a range of 4 deg to 60 deg is calculated (which corresponds to the integrated intensity of the crystalline peaks: Sc). • (9) A degree of crystallinity is calculated according to the following equation. Xc=(Sc/(Sc+Sa))×100 Equation • Xc: Degree of crystallinity (%) • Sc: Integrated intensity of the crystalline peaks • Sa: Integrated intensity of the amorphous halo
For check of the crystalline state and measurement of the degree of crystallinity, powder X-ray diffraction measurement was carried out using a powder X-ray diffraction analyzer (2200/RINT Ultima+PC) manufactured by Rigaku.

[2] = Measurement of particle diameter distribution (laser diffraction, dry measurement, Mastersizer 2000); format: physicochemical; conditions: for Particle Diameter Distribution D50 / Particle Diameter Distribution D90: dry measurement, volume basis
Method: In the present invention, D50 and D90 are indices for defining particle diameter distribution. Particle diameter distribution is usually called particle size distribution. Particles are divided into groups along with their size with appropriate intervals, and weight (volume) or particle number of the particles belonging to each group is measured to obtain the particle number (frequency) of each group. Taking the particle number (frequency) along the ordinate and taking the particle diameter along the abscissa, a particle diameter distribution is shown as a histogram, frequency curve, cumulative curve or the like. In the present invention, frequency was calculated based on volume. In the particle diameter distribution obtained in such a manner, D50 means the particle diameter at the point where the volume which is cumulatively measured from smaller particles reaches 50%, that is, the point where the cumulative frequency of the volume distribution reaches 50%. D90 means the particle diameter at the point where the volume which is cumulatively measured from smaller particles reaches 90%, that is, the point where the cumulative frequency of the volume distribution reaches 90%. Cumulative frequency (%) of particles which have a smaller diameter than a specified particle diameter can also be calculated from such a distribution chart.
Measurement of the particle diameter distribution of the crystalline finely-ground particles according to the present invention may be carried out with a commercially available apparatus using laser diffraction/scattering based on Mie Theory. For example, the measurement is carried out using a commercially available apparatus such as Malvern (registered trademark) Mastersizer Laser Diffraction Analyzer (Malvern Instruments Ltd). This analyzer irradiates He—Ne laser beam and blue light-emitting diode on particles to obtain a light scattering pattern which occurs on a detector by the irradiation, and then analyzes the light scattering pattern according to Mie Theory to determine the particle diameter distribution. […] An example of the measurement condition is as follows, which was used in Evaluation 1 of the present invention.
• Apparatus: Laser diffraction-based particle size distribution analyzer Mastersizer 2000 (Malvern) • Dry measurement unit: Scircco 2000 • Refractive Index of Samples: Real part; 1.810, Imaginary part; 0 • Time for Sample Measurement: 1 second • Time for Background Measurement: 5 seconds • Pressure: 2.0 bar • Feed Rate: 40% • Analysis Model: Single narrow mode • Calculation Sensitivity Enhanced • Particle Shape Irregular • Analysis Range: 0.020 to 2000 μm • Basis of Size Distribution Measurement: Volume
The particle diameter distribution of the subject compound was measured by dry measurement using a particle size distribution analyzer (Mastersizer 2000, manufactured by Malvern). D50 and D90 were calculated as an index of the particle diameter distribution.

[3] = Plasma concentration of drugs when administered to dogs; format: in vivo; conditions: oral 10 mg/kg, 3 male beagle dogs
Method: The pharmaceutical active substances with a different particle diameter distribution (Example 2 and Comparative Example 2) were orally administered (10 mg/kg) to 3 male beagle dogs, and blood samples were collected at each time points to measure the drug concentration in plasma.

[4] = Storage stability (2): total amount of related substances by HPLC, 60° C./75% RH opened; format: physicochemical
Method: For comparison of storage stability, the ground pharmaceutical active substance of Comparative Example 4 (grinding for 3 min), Comparative Example 5 (grinding for 6 min) and Comparative Example 6 (grinding for 7 min), all of which were ground with Table Ball Mill (model V-2M: manufactured by Irie Shokai), were left under the storage condition of 60° C./75% RH opened, and the total amount of related substances was analyzed by HPLC 0.5 and 2 months after the start of the storage (Table 7).

| Structure (SMILES) | Degree of Crystallinity [1] | Cumulative Frequency of Volume Distribution Which Is Occupied by Particles with Volume-Based Particle Diameter 15 (μm) or Less [2] | Particle Diameter Distribution D50 [2] | Particle Diameter Distribution D90 [2] | Drug Plasma Concentration AUC 0-24 h, Average (Standard Deviation) [3] | Drug Plasma Concentration C max, Average (Standard Deviation) [3] | Total Amount of Related Substances ([4]; 60° C./75% RH opened, 0.5-Month Later) | Total Amount of Related Substances ([4]; 60° C./75% RH opened, 2-Month Later) | Total Amount of Related Substances ([4]; At Start of Storage) |
| --- | --- | --- | --- | --- | --- | --- | --- | --- | --- |
| O=C1c2ccccc2C(=O)N1[C@@H]1CC[C@@]2(O)[C@H]3Cc4ccc(O)c5c4[C@@]2(CCN3CC2CC2)[C@H]1O5 [Example 2, N-(17-cyclopropylmethyl-4,5α-epoxy-3,14-dihydroxy-morphinan-6β-yl)-phthalimide] | 89% | 96.3% | 6.23 μm | 12.4 μm | 180.3 (40.9) ng · hr/mL | 18.4 (7.2) ng/mL | – | – | – |
| O=C1c2ccccc2C(=O)N1[C@@H]1CC[C@@]2(O)[C@H]3Cc4ccc(O)c5c4[C@@]2(CCN3CC2CC2)[C@H]1O5 [Comparative Example 2, N-(17-Cyclopropylmethyl-4,5α-epoxy-3,14-dihydroxy-morphinan-6β-yl)-phthalimide] | 93% | 9.4% | 64.0 μm | 173 μm | 44.5 (25.4) ng · hr/mL | 4.8 (1.8) ng/mL | – | – | – |
| O=C1c2ccccc2C(=O)N1[C@@H]1CC[C@@]2(O)[C@H]3Cc4ccc(O)c5c4[C@@]2(CCN3CC2CC2)[C@H]1O5 [Comparative Example 5, N-(17-cyclopropylmethyl-4,5α-epoxy-3,14-dihydroxy-morphinan-6β-yl)-phthalimide] | 71% | – | 19.2 μm | 246 μm | – | – | 0.61% | 1.07% | 0.24% |
